Results as given in the NIST ThermoML archive (doi:10.1016/j.jct.2018.07.026).

Tests used:
[1] = for Normal melting temperature: Crystal 1, DTA
[2] = molar heat capacity at constant pressure; conditions: 78.8 kPa, Crystal, DSC
[3] = Molar enthalpy of transition or fusion; conditions: Crystal 1; DSC

O=C(O)c1cccc([N+](=O)[O-])c1C(=O)O [3-nitro-1,2-benzenedicarboxylic acid]
Conditions	Molar enthalpy of transition or fusion [kcal/mol]	Normal melting temperature [°C]
[1]	–	223.2
[3]	13.2	–

[2]
Conditions	molar heat capacity at constant pressure [J/K/mol]
295.15 K	242.66
296.15 K	244.28
297.15 K	245.61
298.15 K	246.53
299.15 K	247.02
300.15 K	248.36
301.15 K	249.69
302.15 K	250.75
303.15 K	251.67
304.15 K	252.72
305.15 K	253.35
306.15 K	253.99
307.15 K	254.41
308.15 K	254.83
309.15 K	255.47
310.15 K	256.8
311.15 K	255.96
312.15 K	257.22
313.15 K	258
314.15 K	258.77
315.15 K	259.12
316.15 K	260.18
317.15 K	260.67
318.15 K	261.31
319.15 K	261.94
320.15 K	262.71
321.15 K	263.56
322.15 K	264.19
323.15 K	264.97
324.15 K	265.67
325.15 K	266.44
326.15 K	266.94
327.15 K	267.57
328.15 K	268.41
329.15 K	268.77
330.15 K	269.4
331.15 K	269.96
332.15 K	270.6
333.15 K	271.23
334.15 K	271.79
335.15 K	272.36
336.15 K	273.27
337.15 K	272.43
338.15 K	273.83
339.15 K	274.4
340.15 K	275.03
341.15 K	275.66
342.15 K	276.44
343.15 K	277.14
344.15 K	277.63
345.15 K	278.34
346.15 K	278.97
347.15 K	279.75
348.15 K	280.38
349.15 K	280.94
350.15 K	281.5
351.15 K	281.72
352.15 K	282.07
353.15 K	282.49
354.15 K	282.91
355.15 K	283.48
356.15 K	284.11
357.15 K	284.32
358.15 K	285.02
359.15 K	285.59
360.15 K	286.22
361.15 K	286.71
362.15 K	287.21
363.15 K	287.7
364.15 K	288.12
365.15 K	288.68
366.15 K	289.32
367.15 K	289.95
368.15 K	290.3
369.15 K	290.86
370.15 K	291.29
371.15 K	291.64
372.15 K	292.06
373.15 K	292.62
374.15 K	293.26
375.15 K	293.47
376.15 K	294.1
377.15 K	294.59
378.15 K	295.23
379.15 K	295.72
380.15 K	296.07
381.15 K	296.57
382.15 K	296.99
383.15 K	297.55
384.15 K	297.9
385.15 K	298.39
386.15 K	298.68
387.15 K	299.24
388.15 K	299.73
389.15 K	300.01
390.15 K	300.86
391.15 K	301.21
392.15 K	301.49
393.15 K	301.84
394.15 K	302.2
395.15 K	302.69
396.15 K	303.25
397.15 K	303.74
398.15 K	304.45
399.15 K	305.22
400.15 K	305.71
401.15 K	306.28
402.15 K	306.84
403.15 K	307.33
404.15 K	307.68
405.15 K	308.25
406.15 K	308.74
407.15 K	309.02
408.15 K	309.73
409.15 K	310.15
410.15 K	310.64
411.15 K	311.13
412.15 K	311.56

O=C(O)c1ccc([N+](=O)[O-])cc1C(=O)O [4-nitrophthalic acid]
Conditions	mass density [kg/m3]
[1], 298.15 K, 101.33 kPa, Crystal, Pycnometric method	1647

Conditions	Molar enthalpy of transition or fusion [kcal/mol]	Normal melting temperature [°C]
[1]	–	167
[3]	8.84	–

[2]
Conditions	molar heat capacity at constant pressure [J/K/mol]
295.15 K	229.53
296.15 K	230.9
297.15 K	232.06
298.15 K	233.01
299.15 K	233.22
300.15 K	234.59
301.15 K	236.28
302.15 K	237.02
303.15 K	237.97
304.15 K	239.13
305.15 K	239.66
306.15 K	240.19
307.15 K	240.5
308.15 K	240.61
309.15 K	240.93
310.15 K	242.51
311.15 K	241.24
312.15 K	242.62
313.15 K	243.57
314.15 K	244.09
315.15 K	244.83
316.15 K	245.36
317.15 K	246.1
318.15 K	246.2
319.15 K	246.94
320.15 K	248
321.15 K	248.74
322.15 K	249.37
323.15 K	250.22
324.15 K	250.95
325.15 K	251.69
326.15 K	252.22
327.15 K	252.64
328.15 K	253.38
329.15 K	254.02
330.15 K	254.54
331.15 K	255.07
332.15 K	255.71
333.15 K	256.23
334.15 K	256.76
335.15 K	257.5
336.15 K	258.34
337.15 K	256.97
338.15 K	258.45
339.15 K	258.98
340.15 K	259.4
341.15 K	259.93
342.15 K	260.67
343.15 K	261.41
344.15 K	261.72
345.15 K	262.25
346.15 K	262.78
347.15 K	263.52
348.15 K	263.94
349.15 K	264.47
350.15 K	264.99
351.15 K	265.42
352.15 K	266.05
353.15 K	266.26
354.15 K	266.79
355.15 K	267.32
356.15 K	267.74
357.15 K	267.95
358.15 K	268.58
359.15 K	268.9
360.15 K	269.64
361.15 K	269.85
362.15 K	270.27
363.15 K	270.59
364.15 K	271.12
365.15 K	271.86
366.15 K	272.17
367.15 K	272.81
368.15 K	273.23
369.15 K	274.07
370.15 K	274.39
371.15 K	275.02
372.15 K	275.23
373.15 K	275.66
374.15 K	276.29
375.15 K	276.61
376.15 K	277.03
377.15 K	277.56
378.15 K	278.51
379.15 K	279.03
380.15 K	279.56
381.15 K	280.3
382.15 K	280.83
383.15 K	281.57
384.15 K	282.1
385.15 K	282.84
386.15 K	283.26
387.15 K	284.21
388.15 K	284.95
389.15 K	285.37
390.15 K	286.64
391.15 K	287.48
392.15 K	288.22
393.15 K	288.32
394.15 K	289.27
395.15 K	290.33
